The test has as its target T1, interaction between VCAM-1 and VLA-4 (Homo sapiens, UniProt P05556+P13612).
T1 construct: supplied in their natural form as surface molecules on human U937 cells; host or cells: U937 (human)
In words: U937/VCAM-1 cell adhesion test (adhesion of U937 cells to hVCAM-1 (1-3)-IgG). The test is classed as cell-based. The conditions noted are these: read-out: IC50 (50% inhibition of adhesion). The text has this:
The test method used for the activity of the compounds of the formula I on the interaction between VCAM-1 and VLA-4 is an assay which is specific for this interaction. The cellular binding components, i.e., the VLA4 integrins, are supplied in their natural form as surface molecules on human U937 cells (ATCC CRL 1593), which belong to the leucocytes group. The specific binding components used are genetically engineered recombinant soluble fusion proteins, consisting of the extracytoplasmatic domain of human VCAM-1 and the constant region of a human immunoglobulin of the subclass IgG1.
Assay for the measurement of the adhesion of U937 cells (ATCC CRL 1593) to hVCAM-1 (1-3)-IgG
1. Preparation of human VCAM-1(1-3)-IgG and human CD4-IgG
A genetic construct for the expression of the extracellular domain of human VCAM-1, associated with the genetic sequence of the heavy chain of human immunoglobulin IgG1 (hinge, CH2 and CH3 regions), from Dr. Brian Seed, Massachusetts General Hospital, Boston, USA (cf. Damle and Aruffo, Proc. NatI. Acad. Sci. USA 1991, 88, 6403-6407) was employed. The soluble fusion protein hVCAM-1 (1-3)-IgG contained the three amino-terminal extracellular immunoglobulin-like domains of human VCAM-1 (Damle and Aruffo, Proc. Natl. Acad. Sci. USA 1991, 88, 6403). CD4-IgG (Zeftimeissl et al., DNA and Cell Biology 1990, 9, 347) served as a fusion protein for negative controls. The recombinant proteins were expressed as soluble proteins after DEAE/dextran-mediated DNA transfection in COS cells (ATCC CRL1651) according to standard procedures (Ausubel et al., Current Protocols in Molecular Biology, John Wiley & Sons, Inc., 1994).
2. Assay for the measurement of the adhesion of U937 cells to hVCAM-1 (1-3)-IgG
2.1 96-well microtiter test plates (Nunc Maxisorb) were incubated at room temperature for 1 hour with 100 μl/well of a goat-anti-human-IgG antibody solution (10 μg/ml in 50 mM tris, pH 9.5). After removal of the antibody solution, washing was carried out once with PBS.
2.2 150 μl/well of a blocking buffer (1% BSA in PBS) was incubated on the plates at room temperature for 0.5 hour. After removal of the blocking buffer, washing was carried out once with PBS.
2.3 100 μl per well of a cell culture supernatant of transfected COS cells was incubated on the plates at room temperature for 1.5 hours. The COS cells were transfected with a plasmid which codes for the three N-terminal immunoglobulin-like domains of VCAM-1, coupled to the Fc part of human IgG1 (hVCAM-1(1--3)-IgG). The content of hVCAM-1 (1-3)-IgG was about 0.5-1 μg/ml. After removal of the culture supernatant washing was carried out once with PBS. […]

Molecules are shown by their SMILES.

The results in this text go back to patent US6034238A, “Heterocyclic compounds, their preparation and their use as leucocyte adhesion inhibitors and VLA-4-antagonists” (Hoechst Marion Roussel Deutschland GmbH, priority 1997, dated 2000).

T1 sequence (P13612 34-1032): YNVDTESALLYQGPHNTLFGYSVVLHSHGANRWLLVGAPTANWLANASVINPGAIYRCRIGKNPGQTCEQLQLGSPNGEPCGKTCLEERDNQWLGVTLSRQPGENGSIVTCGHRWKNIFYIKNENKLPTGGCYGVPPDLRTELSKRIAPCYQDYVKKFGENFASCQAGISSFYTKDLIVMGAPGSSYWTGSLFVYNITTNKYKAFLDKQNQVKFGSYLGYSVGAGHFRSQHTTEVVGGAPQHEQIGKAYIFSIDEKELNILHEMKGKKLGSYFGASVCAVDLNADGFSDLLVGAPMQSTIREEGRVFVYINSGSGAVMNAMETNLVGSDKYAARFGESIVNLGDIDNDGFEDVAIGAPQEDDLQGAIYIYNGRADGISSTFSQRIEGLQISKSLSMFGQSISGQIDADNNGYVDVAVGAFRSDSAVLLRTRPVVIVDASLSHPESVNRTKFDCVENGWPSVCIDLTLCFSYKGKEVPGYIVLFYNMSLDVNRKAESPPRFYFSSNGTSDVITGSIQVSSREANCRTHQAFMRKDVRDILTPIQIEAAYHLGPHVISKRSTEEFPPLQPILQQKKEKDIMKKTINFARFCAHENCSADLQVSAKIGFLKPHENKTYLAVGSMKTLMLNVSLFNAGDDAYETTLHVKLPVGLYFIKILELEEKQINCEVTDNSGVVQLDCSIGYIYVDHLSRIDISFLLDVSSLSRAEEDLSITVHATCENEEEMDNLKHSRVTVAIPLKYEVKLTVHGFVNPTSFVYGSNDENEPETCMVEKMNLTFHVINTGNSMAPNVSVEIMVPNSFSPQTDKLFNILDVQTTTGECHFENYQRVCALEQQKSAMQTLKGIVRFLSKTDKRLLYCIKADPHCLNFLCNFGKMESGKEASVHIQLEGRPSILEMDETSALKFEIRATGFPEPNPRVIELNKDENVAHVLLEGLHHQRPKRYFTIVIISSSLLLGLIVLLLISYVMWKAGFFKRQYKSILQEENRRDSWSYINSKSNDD
T1 sequence (P05556 21-798): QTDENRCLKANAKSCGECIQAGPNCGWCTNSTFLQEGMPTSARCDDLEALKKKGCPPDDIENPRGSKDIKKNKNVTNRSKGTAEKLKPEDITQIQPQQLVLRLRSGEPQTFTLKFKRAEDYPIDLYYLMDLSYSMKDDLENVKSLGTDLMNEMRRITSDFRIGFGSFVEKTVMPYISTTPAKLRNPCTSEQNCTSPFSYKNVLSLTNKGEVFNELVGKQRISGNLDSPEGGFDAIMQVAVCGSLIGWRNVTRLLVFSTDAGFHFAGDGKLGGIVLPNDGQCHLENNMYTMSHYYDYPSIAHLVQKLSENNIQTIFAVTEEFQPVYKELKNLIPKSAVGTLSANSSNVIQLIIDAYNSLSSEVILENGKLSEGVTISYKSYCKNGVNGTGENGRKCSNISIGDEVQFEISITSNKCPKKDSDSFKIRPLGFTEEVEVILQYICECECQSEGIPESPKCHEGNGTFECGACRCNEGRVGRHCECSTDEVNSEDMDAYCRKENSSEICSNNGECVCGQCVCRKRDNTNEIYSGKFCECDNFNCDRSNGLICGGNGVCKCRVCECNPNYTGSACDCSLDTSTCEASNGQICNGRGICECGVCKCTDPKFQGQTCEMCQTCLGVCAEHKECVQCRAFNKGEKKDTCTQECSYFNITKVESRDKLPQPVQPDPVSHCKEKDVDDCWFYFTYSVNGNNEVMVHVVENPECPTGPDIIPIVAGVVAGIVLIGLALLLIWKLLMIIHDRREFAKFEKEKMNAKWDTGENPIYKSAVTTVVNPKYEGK

Take `CC1(c2ccc(C(=N)N)cc2)C(=O)N(CC(=O)NC[C@H](NC(=O)OCC23CC4CC(CC(C4)C2)C3)C(=O)O)C(=O)N1Cc1ccccc1` (stereo partly drawn) [Example 1, (S)-3-(((R,S)-4-(4-(Amino-imino-methyl)phenyl)-3-benzyl-4-methyl-2,5-dioxoimidazolidin-1-yl)acetylamino)-2-(1-adamantylmethyloxy-carbonylamino)propionic acid]: the IC50 came out at 1.25 µM.

For `CC1(c2ccc(C(=N)N)cc2)C(=O)N(CC(=O)NC[C@H](NC(=O)NCc2ccccc2)C(=O)O)C(=O)N1Cc1ccccc1` (stereo partly drawn) [Example 3, (S)-3-(((R,S)-4-(4-(Amino-imino-methyl)phenyl)-3-benzyl-4-methyl-2,5-dioxoimidazolidin-1-yl)acetylamino)-2-benzylaminocarbonylaminopropionic acid], the IC50 was 11.5 µM.

Regarding `CC1(c2ccc(C(=N)N)cc2)C(=O)N(CC(=O)NC[C@H](NC(=S)NCc2ccccc2)C(=O)O)C(=O)N1Cc1ccccc1` (stereo partly drawn) [Example 4, (S)-(((R,S)-4-(4-(Amino-imino-methyl)phenyl)-3-benzyl-4-methyl-2,5-dioxoimidazolidin-1-yl)acetylamino)-2-benzylaminothiocarbonylamino-propionic acid], the IC50 amounted to 10.5 µM.

With `CC(C)[C@H](NC(=O)[C@H](CC(=O)O)N(C)C(=O)CN1C(=O)N(Cc2ccc3ccccc3c2)C(C)(c2ccc(C(=N)N)cc2)C1=O)C(=O)N1CCOCC1` (stereo partly drawn) [Example 5, ((R,S)-4-(4-(Amino-imino-methyl)phenyl)-3-(2-naphthylmethyl)-4-methyl-2,5-dioxoimidazolidin-1-yl)acetyl-L-(N-methylaspartyl)-L-valine morpholide], the IC50 worked out at 0.73 µM.
